# The source made the active and inactive calls. The calls are words filed in the database; no cut-off is given here. Residues, ends and D or L forms follow the SMILES beside them. *: point of attachment. Lauroyl = CCCCCCCCCCCC(=O)*
# What was measured:
# [1] = test system: A549; test: Potency index, ratio of IC50 for lycosin-I to IC50 for test compound for cytotoxicity in human A549 cells assessed as reduction in cell viability at 0.78 to 50 uM incubated for 24 hrs by CCK8 assay; assay type: functional
# [2] = test system: A549; test: Cytotoxicity in human A549 cells assessed as reduction in cell viability incubated for 24 hrs by CCK8 assay; assay type: functional, cell-based; conditions: A549, 24 h
# [3] = test system: B16-F10; test: Cytotoxicity in mouse B16/F10 cells assessed as reduction in cell viability incubated for 24 hrs by CCK8 assay; assay type: functional, cell-based; conditions: B16-F10, 24 h
# [4] = species: Homo sapiens; test: Induction of cell membrane disruption in human erythrocytes cells assessed as induction of hemolysis at 0.098 to 50 uM incubated for 1 hr by fluorescence based assay relative to control; assay type: cell membranes
# [5] = test system: HEK-293T; test: Cytotoxicity in human HEK293T cells assessed as reduction in cell viability incubated for 24 hrs by CCK8 assay; assay type: cell-based; conditions: human, hek-293t
# [6] = test system: A549; test: Induction of cell membrane disruption in human A549 cells assessed as LDH release at 3.25 uM incubated for 30 mins by fluorescence based assay relative to control
# [7] = test system: A549; test: Cytotoxicity in human A549 cells assessed as reduction in cell viability by trypan blue staining method; assay type: functional, cell-based
SMILES,Ratio IC50 [1],IC50 [2],IC50 [3],Activity [4],Activity [5],Activity [6],Activity [7]
CCCCCCCCCCCC(=O)NCCCC[C@H](N)C(=O)NCC(=O)N[C@@H](Cc1c[nH]c2ccccc12)C(=O)N[C@@H](Cc1ccccc1)C(=O)N[C@@H](CCCCN)C(=O)N[C@@H](C)C(=O)N[C@@H](CCSC)C(=O)N[C@@H](CCCCN)C(=O)N[C@@H](CO)C(=O)N[C@H](C(=O)N[C@@H](C)C(=O)N[C@@H](CCCCN)C(=O)N[C@@H](Cc1ccccc1)C(=O)N[C@H](C(=O)N[C@@H](C)C(=O)N[C@@H](CCCCN)C(=O)N[C@@H](CCC(=O)O)C(=O)N[C@@H](CCCCN)C(=O)N[C@@H](CC(C)C)C(=O)N[C@@H](CCCCN)C(=O)N[C@@H](CCC(=O)O)C(=O)N[C@@H](Cc1cnc[nH]1)C(=O)N[C@@H](CC(C)C)C(=O)O)[C@@H](C)CC)[C@@H](C)CC (H-K(Lauroyl)GWFKAMKSIAKFIAKEKLKEHL-OH),4 - 15,3100 nM,2000 nM,Active,Toxic,51.3%,Active
CCCCCCCCCCCC(=O)NCCCC[C@H](NC(=O)[C@H](Cc1ccccc1)NC(=O)[C@H](Cc1c[nH]c2ccccc12)NC(=O)CNC(=O)[C@@H](N)CCCCN)C(=O)N[C@@H](C)C(=O)N[C@@H](CCSC)C(=O)N[C@@H](CCCCN)C(=O)N[C@@H](CO)C(=O)N[C@H](C(=O)N[C@@H](C)C(=O)N[C@@H](CCCCN)C(=O)N[C@@H](Cc1ccccc1)C(=O)N[C@H](C(=O)N[C@@H](C)C(=O)N[C@@H](CCCCN)C(=O)N[C@@H](CCC(=O)O)C(=O)N[C@@H](CCCCN)C(=O)N[C@@H](CC(C)C)C(=O)N[C@@H](CCCCN)C(=O)N[C@@H](CCC(=O)O)C(=O)N[C@@H](Cc1cnc[nH]1)C(=O)N[C@@H](CC(C)C)C(=O)O)[C@@H](C)CC)[C@@H](C)CC (H-KGWFK(Lauroyl)AMKSIAKFIAKEKLKEHL-OH),4 - 15,7700 nM,2000 nM,Active,Toxic,23.1%,Active
CCCCCCCCCCCC(=O)NCCCC[C@H](NC(=O)[C@H](CCSC)NC(=O)[C@H](C)NC(=O)[C@H](CCCCN)NC(=O)[C@H](Cc1ccccc1)NC(=O)[C@H](Cc1c[nH]c2ccccc12)NC(=O)CNC(=O)[C@@H](N)CCCCN)C(=O)N[C@@H](CO)C(=O)N[C@H](C(=O)N[C@@H](C)C(=O)N[C@@H](CCCCN)C(=O)N[C@@H](Cc1ccccc1)C(=O)N[C@H](C(=O)N[C@@H](C)C(=O)N[C@@H](CCCCN)C(=O)N[C@@H](CCC(=O)O)C(=O)N[C@@H](CCCCN)C(=O)N[C@@H](CC(C)C)C(=O)N[C@@H](CCCCN)C(=O)N[C@@H](CCC(=O)O)C(=O)N[C@@H](Cc1cnc[nH]1)C(=O)N[C@@H](CC(C)C)C(=O)O)[C@@H](C)CC)[C@@H](C)CC (H-KGWFKAMK(Lauroyl)SIAKFIAKEKLKEHL-OH),4 - 15,7300 nM,2000 nM,Active,Toxic,25.7%,Active
CCCCCCCCCCCC(=O)NCCCC[C@H](NC(=O)[C@H](C)NC(=O)[C@@H](NC(=O)[C@H](CO)NC(=O)[C@H](CCCCN)NC(=O)[C@H](CCSC)NC(=O)[C@H](C)NC(=O)[C@H](CCCCN)NC(=O)[C@H](Cc1ccccc1)NC(=O)[C@H](Cc1c[nH]c2ccccc12)NC(=O)CNC(=O)[C@@H](N)CCCCN)[C@@H](C)CC)C(=O)N[C@@H](Cc1ccccc1)C(=O)N[C@H](C(=O)N[C@@H](C)C(=O)N[C@@H](CCCCN)C(=O)N[C@@H](CCC(=O)O)C(=O)N[C@@H](CCCCN)C(=O)N[C@@H](CC(C)C)C(=O)N[C@@H](CCCCN)C(=O)N[C@@H](CCC(=O)O)C(=O)N[C@@H](Cc1cnc[nH]1)C(=O)N[C@@H](CC(C)C)C(=O)O)[C@@H](C)CC (H-KGWFKAMKSIAK(Lauroyl)FIAKEKLKEHL-OH),4 - 15,4900 nM,2000 nM,Active,Toxic,38.5%,Active
CCCCCCCCCCCC(=O)NCCCC[C@H](NC(=O)[C@H](C)NC(=O)[C@@H](NC(=O)[C@H](Cc1ccccc1)NC(=O)[C@H](CCCCN)NC(=O)[C@H](C)NC(=O)[C@@H](NC(=O)[C@H](CO)NC(=O)[C@H](CCCCN)NC(=O)[C@H](CCSC)NC(=O)[C@H](C)NC(=O)[C@H](CCCCN)NC(=O)[C@H](Cc1ccccc1)NC(=O)[C@H](Cc1c[nH]c2ccccc12)NC(=O)CNC(=O)[C@@H](N)CCCCN)[C@@H](C)CC)[C@@H](C)CC)C(=O)N[C@@H](CCC(=O)O)C(=O)N[C@@H](CCCCN)C(=O)N[C@@H](CC(C)C)C(=O)N[C@@H](CCCCN)C(=O)N[C@@H](CCC(=O)O)C(=O)N[C@@H](Cc1cnc[nH]1)C(=O)N[C@@H](CC(C)C)C(=O)O (H-KGWFKAMKSIAKFIAK(Lauroyl)EKLKEHL-OH),4 - 15,4600 nM,2000 nM,Active,Toxic,34.6%,Active
CCCCCCCCCCCC(=O)NCCCC[C@H](NC(=O)[C@H](CCC(=O)O)NC(=O)[C@H](CCCCN)NC(=O)[C@H](C)NC(=O)[C@@H](NC(=O)[C@H](Cc1ccccc1)NC(=O)[C@H](CCCCN)NC(=O)[C@H](C)NC(=O)[C@@H](NC(=O)[C@H](CO)NC(=O)[C@H](CCCCN)NC(=O)[C@H](CCSC)NC(=O)[C@H](C)NC(=O)[C@H](CCCCN)NC(=O)[C@H](Cc1ccccc1)NC(=O)[C@H](Cc1c[nH]c2ccccc12)NC(=O)CNC(=O)[C@@H](N)CCCCN)[C@@H](C)CC)[C@@H](C)CC)C(=O)N[C@@H](CC(C)C)C(=O)N[C@@H](CCCCN)C(=O)N[C@@H](CCC(=O)O)C(=O)N[C@@H](Cc1cnc[nH]1)C(=O)N[C@@H](CC(C)C)C(=O)O (H-KGWFKAMKSIAKFIAKEK(Lauroyl)LKEHL-OH),4 - 15,5100 nM,2000 nM,Active,Toxic,40.2%,Active
CCCCCCCCCCCC(=O)NCCCC[C@H](NC(=O)[C@H](CC(C)C)NC(=O)[C@H](CCCCN)NC(=O)[C@H](CCC(=O)O)NC(=O)[C@H](CCCCN)NC(=O)[C@H](C)NC(=O)[C@@H](NC(=O)[C@H](Cc1ccccc1)NC(=O)[C@H](CCCCN)NC(=O)[C@H](C)NC(=O)[C@@H](NC(=O)[C@H](CO)NC(=O)[C@H](CCCCN)NC(=O)[C@H](CCSC)NC(=O)[C@H](C)NC(=O)[C@H](CCCCN)NC(=O)[C@H](Cc1ccccc1)NC(=O)[C@H](Cc1c[nH]c2ccccc12)NC(=O)CNC(=O)[C@@H](N)CCCCN)[C@@H](C)CC)[C@@H](C)CC)C(=O)N[C@@H](CCC(=O)O)C(=O)N[C@@H](Cc1cnc[nH]1)C(=O)N[C@@H](CC(C)C)C(=O)O (H-KGWFKAMKSIAKFIAKEKLK(Lauroyl)EHL-OH),4 - 15,5000 nM,2000 nM,Active,Toxic,36.6%,Active
